{"source": "patent US10611795B2", "about": "“Methods for viral inactivation using eco-friendly detergents” (priority 2013, dated 2020)", "key": {"[1]": {"assay": "EHS evaluation: basic physical and toxicological characteristics from manufacturer and government literature", "settings": "not solid due to the algal and fish data"}, "[2]": {"tested_on": "Xenotropic Murine Leukemia Virus (XMuLV)", "format": "cell-based", "settings": "for xMuLV inactivation LRV, Time 0.5 / xMuLV inactivation LRV, Time 1 / xMuLV inactivation LRV, Time 3 / xMuLV inactivation LRV, Time 6 / xMuLV inactivation, in words / xMuLV inactivation LRV, Time 2: 20° C.; for xMuLV inactivation LRV, Time 0.5: 0.5 h; for xMuLV inactivation LRV, Time 1: 1 h; for xMuLV inactivation LRV, Time 3: 3 h; for xMuLV inactivation LRV, Time 6: 6 h; for xMuLV inactivation, in words: detergent or solvent alone; for xMuLV inactivation LRV, Time 2: 2 h; for XMuLV LRV: rProtein1 CaptoAdhere Pool, Room Temperature"}, "[3]": {"settings": "cited from earlier work; for EC50: 3 weeks, Selenastrum capricornutum; for acute EC50: 30 min Photobacterium phosphoreum (marine light-emitting bacteria); for Biodegradability classification in Closed Bottle and Modified OECD Screening Tests: both Closed Bottle and Modified OECD Screening Tests"}, "[4]": {"assay": "Detergent mixing turbidity analysis (average absorbance 340-360 nm)", "format": "physicochemical", "settings": "MAb1 HCCF"}, "[5]": {"assay": "Turbidity after detergent exposure", "format": "physicochemical", "settings": "MAb3 HCCF and MAb3 MSS pool, three hours"}, "[6]": {"tested_on": "bovine viral diarrhea virus (BVDV)", "assay": "BVDV inactivation, plaque assay with BT indicator cells (LRV)", "format": "cell-based", "settings": "rProtein 2 HCCF, 0.3% Detergent, 20° C., Run 1, Run 2"}, "[7]": {"settings": "MAb1 HCCF, listed as 1% Polysorbate 20"}, "[8]": {"settings": "MAb1 HCCF, listed as 2% Polysorbate 20"}, "[9]": {"settings": "various (12 species) marine microalgae, 10-12 d"}, "[10]": {"settings": "~2 d, Sphaerechinus granularis, sea urchin embryo-larval test, marine"}, "[11]": {"settings": "MAb1 HCCF, listed as 0.03M caprylate pH 4.5"}, "[12]": {"settings": "MAb1 HCCF, listed as 0.03M caprylate pH 7.6"}, "[13]": {"settings": "MAb1 HCCF, listed as 0.1M caprylate pH 5.0"}, "[14]": {"settings": "MAb1 HCCF, listed as 0.1M caprylate pH 7.6"}, "[15]": {"settings": "MAb1 Protein A pool, listed as 1% Polysorbate 80"}, "[16]": {"settings": "MAb1 Protein A pool, listed as 2% Polysorbate 80"}}, "note": "Values joined by “and” are separate entries in the source; they are usually repeats but may differ in a detail not shown here. Identical values can stand only once. Like-named read-outs stand apart in the source and are kept apart here."}
{"molecule": "Polysorbate 20", "values": [{"measurement": "preliminary acute-based freshwater PNEC", "setting": "[1]", "result": "freshwater PNEC 0.1 mg/l,"}, {"measurement": "xMuLV inactivation LRV, Time 0.5", "setting": "[2]; [7]", "result": 1.0}, {"measurement": "xMuLV inactivation LRV, Time 0.5", "setting": "[2]; [8]", "result": 0.6}, {"measurement": "xMuLV inactivation LRV, Time 1", "setting": "[2]; [7]", "result": 1.4}, {"measurement": "xMuLV inactivation LRV, Time 1", "setting": "[2]; [8]", "result": 0.7}, {"measurement": "xMuLV inactivation LRV, Time 3", "setting": "[2]; [7]", "result": 2.3}, {"measurement": "xMuLV inactivation LRV, Time 3", "setting": "[2]; [8]", "result": 2.2}, {"measurement": "xMuLV inactivation LRV, Time 6", "setting": "[2]; [7]", "result": 4.5}, {"measurement": "xMuLV inactivation LRV, Time 6", "setting": "[2]; [8]", "result": 5.6}, {"measurement": "xMuLV inactivation, in words", "setting": "[2]; MAb1 HCCF", "result": "less effective"}, {"measurement": "acute LC50", "setting": "[3]; 1 d Artemia sp. (marine)", "result": "acute LC50 1447 mg/l 1 d"}, {"measurement": "LC50", "setting": "[3]; 1 d Poecilia reticulata, freshwater", "result": "LC50 350 mg/l 1 d Poecilia"}, {"measurement": "Biodegradability according to Roche's inherent biodegradability test (OECD 302)", "setting": "[3]", "result": "Poor biodegradability"}, {"measurement": "EC50", "setting": "[3]; freshwater", "result": "EC50 ≤100 mg/l 3 weeks"}, {"measurement": "acute NOEC", "setting": "[3]; highest tested concentration, limit test, 48 h Daphnia magna, OECD202", "result": "acute NOEC 10 mg/l"}, {"measurement": "chronic NOEC", "setting": "[3]; highest tested concentration, limit test, 21 d Daphnia magna, OECD repro", "result": "chronic NOEC 10 mg/l"}, {"measurement": "chronic NOEC", "setting": "[3]; [9]", "result": "chronic NOEC 10 mg/l"}, {"measurement": "chronic NOEC", "setting": "[3]; [10]", "result": "chronic NOEC 20 mg/l ~2 d,"}]}
{"molecule": "CCCCCCCCCCOC1OC(CO)C(O)C(O)C1O", "note": "(stereo not drawn) [Alkylglucosides C10]", "values": [{"measurement": "acute EC50", "setting": "[3]", "result": 7.9, "unit": "µg/mL"}, {"measurement": "Biodegradability classification in Closed Bottle and Modified OECD Screening Tests", "setting": "[3]", "result": "C10 and C12) are readily"}]}
{"molecule": "CCCCCCCCCCCCOC1OC(CO)C(O)C(O)C1O", "note": "(stereo not drawn) [Alkylglucosides C12]", "values": [{"measurement": "acute EC50", "setting": "[3]", "result": "C12 = 8.8 mg/l), 30 min"}, {"measurement": "Biodegradability classification in Closed Bottle and Modified OECD Screening Tests", "setting": "[3]", "result": "C10 and C12) are readily"}]}
{"molecule": "CCCCCCCCCCCC(=O)NCCC[N+](C)(C)CC(=O)[O-]", "note": "[lauramidopropyl betaine]", "values": [{"measurement": "Biodegradability classification", "setting": "[3]; as stated in the Biodegradability column, no single test named", "result": "readily biodegradable"}]}
{"molecule": "CCCCCCCC(=O)O", "note": "[caprylate, caprylic acid]", "values": [{"measurement": "turbidity during mixing, after filtration and overnight incubation (FIGS. 2, 3), in words", "setting": "[4]", "result": "Turbidity increased with the addition and mixing"}, {"measurement": "xMuLV inactivation LRV, Time 2", "setting": "[2]; [11]", "result": "≥5.0"}, {"measurement": "xMuLV inactivation LRV, Time 2", "setting": "[2]; [12]", "result": 0.21}, {"measurement": "xMuLV inactivation LRV, Time 2", "setting": "[2]; [13]", "result": "≥5.1"}, {"measurement": "xMuLV inactivation LRV, Time 2", "setting": "[2]; [14]", "result": "≥6.0"}, {"measurement": "xMuLV inactivation LRV, Time 3", "setting": "[2]; [11]", "result": "≥5.0"}, {"measurement": "xMuLV inactivation LRV, Time 3", "setting": "[2]; [12]", "result": 0.30}, {"measurement": "xMuLV inactivation LRV, Time 3", "setting": "[2]; [13]", "result": "≥5.1"}, {"measurement": "xMuLV inactivation LRV, Time 3", "setting": "[2]; [14]", "result": "≥6.0"}, {"measurement": "turbidity, in words", "setting": "[5]", "result": "Significant turbidity"}]}
{"molecule": "Polysorbate 80", "values": [{"measurement": "xMuLV inactivation LRV, Time 1", "setting": "[2]; MAb1 HCCF", "result": 3.3}, {"measurement": "xMuLV inactivation LRV, Time 3", "setting": "[2]; MAb1 HCCF", "result": 5.7}, {"measurement": "xMuLV inactivation, in words", "setting": "[2]; MAb1 HCCF", "result": "less effective"}, {"measurement": "xMuLV inactivation LRV, Time 0.5", "setting": "[2]; [15]", "result": 0.4}, {"measurement": "xMuLV inactivation LRV, Time 0.5", "setting": "[2]; [16]", "result": 0.7}, {"measurement": "xMuLV inactivation LRV, Time 1", "setting": "[2]; [15]", "result": 0.9}, {"measurement": "xMuLV inactivation LRV, Time 1", "setting": "[2]; [16]", "result": 0.7}, {"measurement": "xMuLV inactivation LRV, Time 2", "setting": "[2]; MAb1 Protein A pool", "result": 1.2}, {"measurement": "xMuLV inactivation LRV, Time 3", "setting": "[2]; [15]", "result": 1.1}, {"measurement": "xMuLV inactivation LRV, Time 3", "setting": "[2]; [16]", "result": 1.0}, {"measurement": "XMuLV LRV", "setting": "[2]; 5 min, Run 1, Run 2", "result": ".45"}, {"measurement": "XMuLV LRV", "setting": "[2]; 10 min, Run 1, Run 2", "result": ".57"}, {"measurement": "XMuLV LRV", "setting": "[2]; 15 min", "result": ".82"}, {"measurement": "XMuLV LRV", "setting": "[2]; 30 min", "result": 2.1}, {"measurement": "time to effective XMuLV inactivation", "setting": "[2]; rProtein1 CaptoAdhere pool, room temperature", "result": 1, "unit": "h"}, {"measurement": "?NOEC", "setting": "[3]; 3 weeks Selenastrum capricornutum, printed with question marks", "result": 100, "unit": "mg/l? 3 weeks"}, {"measurement": "chronic NOEC", "setting": "[3]; 4 d Gloeocapsa (Cyanobacteria)", "result": "chronic NOEC 100 mg/l 4 d"}, {"measurement": "chronic NOEC", "setting": "[3]; 96 h Tetrahymena pyriformis", "result": "chronic NOEC 250 mg/l 96 h"}, {"measurement": "algal NOEC", "setting": "[3]; Chlorella vulgaris 96 h, freshwater", "result": "algal NOEC 2 mg/l"}, {"measurement": "Biodegradability according to Roche's inherent biodegradability test (OECD 302)", "setting": "[3]", "result": "Poor biodegradability"}, {"measurement": "algal EC10 (~NOEC)", "setting": "[3]; Scenedesmus quadricauda 96 h, freshwater", "result": "algal EC10 (~NOEC) 6.99 mg/l"}, {"measurement": "EC50", "setting": "[3]; freshwater", "result": "EC50 ≥100 mg/l, ?NOEC"}, {"measurement": "chronic NOEC", "setting": "[3]; [9]", "result": "chronic NOEC 10 mg/l"}, {"measurement": "chronic NOEC", "setting": "[3]; [10]", "result": "chronic NOEC 20 mg/l ~2 d,"}]}
{"molecule": "Triton X-100", "values": [{"measurement": "BVDV log reduction value", "setting": "[6]; 30 min", "result": "5.4 and 5.5"}, {"measurement": "BVDV log reduction value", "setting": "[6]; 60 min", "result": ">5.4 and >5.5"}]}
{"molecule": "CCCCCCOC1OC(CO)C(O)C(O)C1O", "note": "(stereo not drawn) [Alkylglucosides C6]", "values": [{"measurement": "acute EC50", "setting": "[3]", "result": "EC50: C6 = 490 mg/l; C8 ="}, {"measurement": "Biodegradability classification in Closed Bottle and Modified OECD Screening Tests", "setting": "[3]", "result": "C10 and C12) are readily"}]}
{"molecule": "CCCCCCCCOC1OC(CO)C(O)C(O)C1O", "note": "(stereo not drawn) [Alkylglucosides C8]", "values": [{"measurement": "acute EC50", "setting": "[3]", "result": 11.7, "unit": "µg/mL"}, {"measurement": "Biodegradability classification in Closed Bottle and Modified OECD Screening Tests", "setting": "[3]", "result": "C10 and C12) are readily"}]}
